Drawing on patent publication US6482822B1, “N-(iminomethyl)amines derivatives, their preparation, their use as medicines and compositions containing them” (Societe de Conseils de Recherches et d'Applications …, priority 1998, dated 2002), this text covers melting point for 1 compound.

Where a name gives a salt, the structure may show the parent alone.

In turn, `NC(=Nc1ccc(CCCC(=O)Nc2ccc3[nH]c4ccccc4c3c2)cc1)c1cccs1` (as salt: hydrochloride) [Example 18, 4-(4-{[Amino(2-thienyl)methylidene]amino}phenyl)-N-(9H-carbazol-3-yl)butanamide Hydrochloride] yielded a melting point of more than 250 °C.
